In patent publication US20110039825A1, “LIGANDS OF ALPHA-ADRENOCEPTORS, DOPAMINE, HISTAMINE, IMIDAZOLINE AND SEROTONIN RECEPTORS AND THEIR USE” (Alla Chem, LLC, priority 2007, published 2011):

Key:
[1] = system: mice; test: Mice Training in Morris Water Maze (Scopolamine); assay type: in vivo; details: unitary introduction of active ingredient
Method: Mice Training in Morris Water Maze. A round pool which was filled with water at 20-22° C. was used. A round ceramic platform of 14 cm height was placed in the pool. Animals's behavior was registered with automated computer videosystem in combination with software package of movement analysis Any-maze (Stoelting Co., US). Before testing mice suitable for training were selected. That was done by placing the platform 1 cm above the water level and putting an animal on the platform for 20 seconds. Then the mouse was sunk into the water on the opposite side of the pool, allowed to find the platform and climbed it within 60 seconds, where it was left for additional 20 seconds. After that the mouse was repeatedly immersed into water on the opposite side of the pool and allowed to look for platform. If it failed in finding the platform within 60 seconds the experimentator helped it to find the platform and climb it. If the mice could not find the platform itself in two consecutive attempts it was excluded from experiment.
During the next two days the platform was placed 0.5 centimeter lower the water level. Every day the mice were given four attempts for finding the platform within 60 seconds. The time interval between the attempts was 20 seconds, during which the mice stayed on the platform. Every day before the first attempt mouse was placed on the platform for 20 seconds. The time needed for finding and climbing the platform was registered. The animals were sunk in water in 3 different places on the side of the pool opposite to platform. On each day of two-day testing 35-40 minutes before the beginning of training the mice were injected intraintestinally with physiological solution, Scopolamine or Scopolamine in combination with investigated compound. At least 8 animals were used in each group.
On the third day the platform was removed and each animal was placed one time in the pool for a period of 60 seconds. The time each mouse spent in the area where the platform had been located during the previous days was registered. This time interval was regarded as a measure of effectiveness of training fulfilled during the previous two days. The testing was carried out during the day time in isolated laboratory using “white noise” at level of about 70 decibel above the human hearing threshold.

[2] = biological target: T1, human 5-HT7 receptor (Homo sapiens, UniProt P34969); test: radioligand binding to serotonin receptor 5-HT7 ([3H] Lysergic acid diethylamide); details: ligand concentration 1 μM
T1 construct: expressed in transfected cells; host or cells: CHO
Excerpt: For this purpose sDNA of human 5-HT7 receptor is expressed in CHO cells as it was described in [Shen Y, Monsma F J Jr, Metcalf M A, Jose P A, Hamblin M W, and Sibley DR. […] J. Biol. Chem. 1993, 268, 18200-18204]. […] J. Pharmacol. Exp. Ther. 1994, 268:1403-1410]. […] Methiothepin is used as positive control.

[3] = biological target: T2, recombinant human 5-HT6 receptor (Homo sapiens, UniProt P50406); test: radioligand binding to serotonin receptor 5-HT6 ([3H] Lysergic acid diethylamide)
T2 construct: expressed in transfected cells; host or cells: HeLa
Excerpt: Mol. Pharmacol. 43:320-327, 1993]. […] Methiothepin is used as positive control.

[4] = system: imidazoline receptor I2; test: radioligand binding to imidazoline receptor I2 ([3H] Idazoxan); design: species or system rat; details: 10 μM ligand
Method: Determination of investigated compounds' binding to imidazoline I2 receptor is carried out according to the method described in [Brown C M, MacKinnon A C, McGrath J C, Spedding M and Kilpatrick A T, a2-Adrenoceptor subtypes and imidazoline-like binding in the rat brain. Br J. Pharmacol. 99:803-809, 1990]. […] Idazoxan is used as positive control.

[5] = biological target: T3, human H2 receptor (Homo sapiens, UniProt P25021); test: radioligand binding to histamine receptor H2 ([125I] Aminopotentidine); details: 10 μM ligand
T3 construct: expressed in transfected cells; host or cells: CHO-K1
Excerpt: Proc Natl Acad Sci USA. 87(5): 1658-1662, 1990]. […] Proc Natl Acad Sci USA. 87(5): 1658-1662, 1990]. […] Tiotidine is used as positive control.

[6] = biological target: T4, human α1D receptor (Homo sapiens, UniProt P25100); test: radioligand binding to adrenergic receptor α1D ([3H] Prazosin); details: 10 μM ligand
T4 construct: expressed in transfected cells; host or cells: HEK-293
T4 sequence (P25100 1-572): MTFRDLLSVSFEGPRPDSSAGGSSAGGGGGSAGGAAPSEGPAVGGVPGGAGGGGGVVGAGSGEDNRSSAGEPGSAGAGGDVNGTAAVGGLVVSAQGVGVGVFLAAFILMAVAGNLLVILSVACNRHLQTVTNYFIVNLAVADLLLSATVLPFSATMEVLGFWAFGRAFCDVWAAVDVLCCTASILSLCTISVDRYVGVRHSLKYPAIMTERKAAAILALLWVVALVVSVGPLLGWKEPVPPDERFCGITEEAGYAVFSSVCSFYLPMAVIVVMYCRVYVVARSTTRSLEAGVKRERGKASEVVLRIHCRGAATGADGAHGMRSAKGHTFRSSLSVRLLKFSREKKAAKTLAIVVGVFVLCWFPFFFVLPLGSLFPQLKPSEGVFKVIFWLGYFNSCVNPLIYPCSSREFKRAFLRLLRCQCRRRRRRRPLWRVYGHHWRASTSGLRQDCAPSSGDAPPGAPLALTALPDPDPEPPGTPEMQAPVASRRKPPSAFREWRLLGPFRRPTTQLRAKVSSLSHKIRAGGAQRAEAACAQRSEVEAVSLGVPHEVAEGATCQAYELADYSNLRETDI
Excerpt: 6-C. […] For this purpose sDNA of human α1D receptor is expressed in HEK-293 cells, as it was described in [T L Theroux, T A Esbenshade, R D Peavy and K P Minneman. Coupling efficiencies of human alpha 1-adrenergic receptor subtypes: titration of receptor density and responsiveness with inducible and repressible expression vectors. Mol. Pharmacol.; 50: 1376-1387, 1996]. […] Prazosin is used as positive control.

[7] = biological target: T5, recombinant human 5-HT2B receptor (Homo sapiens, UniProt P41595); test: radioligand binding to serotonin receptor 5-HT2B ([3H] Lysergic acid diethylamide)
T5 construct: expressed in transfected cells; host or cells: CHO-K1
Method: Screening of the disclosed compounds for potential ability to interact with serotonin receptor 5-HT2A is carried out by method of radioligand binding. For this purpose membrane species are prepared from CHO-K1 cells comprising recombinant human 5-HT2B receptor by homogenization of recombinant cells in glass homogenizer with the subsequent separation of plasmatic membranes from cell nuclei, mitochondrias and cell wreckages by differential centrifugation. […] After incubation the samples are filtered in vacuo on glass-microfiber filters G/F (Millipor, USA), filters are washed three times with cold solution of medium and radioactivity is measured by scintillation counter MicroBeta 340 (Perkin Elmer, USA). […] Ketanserin is used as positive control. The tested compounds' binding to the receptor is determined by their ability to displace the radioligand and is expressed in percent of displacement (% I). Values of % I are calculated according to the following equation:
wherein: TA—is the overall radioactivity in the presence of radioligand only, CA—is the radioactivity in the presence of radioligand and tested compound and NA—is the radioactivity in the presence of radioligand and Serotonin (10 μM).

[8] = biological target: T6, recombinant human 5-HT2A receptor (Homo sapiens, UniProt P28223); test: radioligand binding to serotonin receptor 5-HT2A ([3H] Ketanserin)
T6 construct: expressed in transfected cells; host or cells: CHO-K1
Method: 9-C. […] J. Neurochem. […] Ketanserin is used as positive control. […] Values of % I is calculated according to the following equation: […]

[9] = biological target: T7, human H1 receptor (Homo sapiens, UniProt P35367); test: radioligand binding to histamine receptor H1 ([3H] Pyrilamine); details: 10 μM ligand
T7 construct: expressed in transfected cells; host or cells: CHO-K1
Excerpt: Biochem Biophys Res Comm. 197(3): 1601-1608, 1993]. […] Biochem Biophys Res Comm. 197(3): 1601-1608, 1993].
Pyrilamine is used as positive control.

T2 sequence (P50406 whole entry): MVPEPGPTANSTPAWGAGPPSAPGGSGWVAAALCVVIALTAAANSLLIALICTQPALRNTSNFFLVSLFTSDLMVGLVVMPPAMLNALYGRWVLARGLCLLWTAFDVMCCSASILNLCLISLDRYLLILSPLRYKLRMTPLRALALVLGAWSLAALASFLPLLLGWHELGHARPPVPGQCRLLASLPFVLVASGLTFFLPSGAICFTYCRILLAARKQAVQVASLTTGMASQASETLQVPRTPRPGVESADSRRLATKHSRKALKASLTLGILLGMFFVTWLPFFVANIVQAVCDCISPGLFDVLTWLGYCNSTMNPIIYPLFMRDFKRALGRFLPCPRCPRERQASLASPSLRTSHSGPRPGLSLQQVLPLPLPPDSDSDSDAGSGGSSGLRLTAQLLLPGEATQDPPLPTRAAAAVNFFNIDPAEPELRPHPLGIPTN
T5 sequence (P41595 whole entry): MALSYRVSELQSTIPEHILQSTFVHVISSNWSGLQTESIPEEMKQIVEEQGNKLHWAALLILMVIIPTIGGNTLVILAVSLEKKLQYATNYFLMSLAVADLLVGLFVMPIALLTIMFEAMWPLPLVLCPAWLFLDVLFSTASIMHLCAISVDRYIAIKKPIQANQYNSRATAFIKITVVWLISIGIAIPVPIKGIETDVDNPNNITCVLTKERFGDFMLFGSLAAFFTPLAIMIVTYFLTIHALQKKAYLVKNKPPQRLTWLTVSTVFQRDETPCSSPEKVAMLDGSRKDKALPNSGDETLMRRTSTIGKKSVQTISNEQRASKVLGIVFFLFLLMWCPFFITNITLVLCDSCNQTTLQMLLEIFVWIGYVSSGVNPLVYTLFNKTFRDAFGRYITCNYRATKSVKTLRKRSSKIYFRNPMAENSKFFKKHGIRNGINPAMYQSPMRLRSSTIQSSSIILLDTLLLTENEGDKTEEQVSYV
T6 sequence (P28223 whole entry): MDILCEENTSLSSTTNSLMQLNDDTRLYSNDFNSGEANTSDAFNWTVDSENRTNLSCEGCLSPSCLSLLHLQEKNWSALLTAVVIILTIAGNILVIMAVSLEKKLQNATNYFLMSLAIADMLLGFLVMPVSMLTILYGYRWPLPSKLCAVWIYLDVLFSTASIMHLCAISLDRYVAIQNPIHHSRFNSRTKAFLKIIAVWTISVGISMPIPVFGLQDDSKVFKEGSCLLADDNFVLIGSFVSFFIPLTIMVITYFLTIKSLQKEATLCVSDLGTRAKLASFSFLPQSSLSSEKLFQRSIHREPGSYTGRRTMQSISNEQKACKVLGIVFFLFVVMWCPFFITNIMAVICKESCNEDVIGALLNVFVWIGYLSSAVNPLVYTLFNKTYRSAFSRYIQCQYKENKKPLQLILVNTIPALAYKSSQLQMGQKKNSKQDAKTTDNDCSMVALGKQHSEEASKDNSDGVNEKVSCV
T3 sequence (P25021 whole entry): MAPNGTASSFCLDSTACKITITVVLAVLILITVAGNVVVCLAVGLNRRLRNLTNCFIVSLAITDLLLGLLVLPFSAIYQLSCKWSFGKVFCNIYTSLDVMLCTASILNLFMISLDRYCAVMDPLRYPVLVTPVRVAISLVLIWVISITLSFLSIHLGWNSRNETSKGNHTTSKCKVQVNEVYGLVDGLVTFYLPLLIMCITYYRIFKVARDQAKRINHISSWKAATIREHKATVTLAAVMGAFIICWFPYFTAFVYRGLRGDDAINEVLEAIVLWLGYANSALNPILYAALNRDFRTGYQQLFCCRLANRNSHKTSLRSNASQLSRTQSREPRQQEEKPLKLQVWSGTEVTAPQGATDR
T7 sequence (P35367 whole entry): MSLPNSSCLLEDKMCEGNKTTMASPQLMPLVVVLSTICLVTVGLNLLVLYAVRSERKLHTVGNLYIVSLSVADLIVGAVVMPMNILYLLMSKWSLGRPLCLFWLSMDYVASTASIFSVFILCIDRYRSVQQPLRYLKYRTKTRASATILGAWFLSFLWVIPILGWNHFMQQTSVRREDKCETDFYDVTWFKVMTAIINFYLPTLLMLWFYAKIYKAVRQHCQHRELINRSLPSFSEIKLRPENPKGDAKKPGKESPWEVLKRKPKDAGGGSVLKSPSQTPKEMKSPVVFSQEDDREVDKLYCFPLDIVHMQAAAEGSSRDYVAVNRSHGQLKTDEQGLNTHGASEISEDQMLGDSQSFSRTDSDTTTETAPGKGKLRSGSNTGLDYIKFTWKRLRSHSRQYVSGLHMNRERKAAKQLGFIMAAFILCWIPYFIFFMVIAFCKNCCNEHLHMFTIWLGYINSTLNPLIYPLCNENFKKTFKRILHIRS
T1 sequence (P34969 whole entry): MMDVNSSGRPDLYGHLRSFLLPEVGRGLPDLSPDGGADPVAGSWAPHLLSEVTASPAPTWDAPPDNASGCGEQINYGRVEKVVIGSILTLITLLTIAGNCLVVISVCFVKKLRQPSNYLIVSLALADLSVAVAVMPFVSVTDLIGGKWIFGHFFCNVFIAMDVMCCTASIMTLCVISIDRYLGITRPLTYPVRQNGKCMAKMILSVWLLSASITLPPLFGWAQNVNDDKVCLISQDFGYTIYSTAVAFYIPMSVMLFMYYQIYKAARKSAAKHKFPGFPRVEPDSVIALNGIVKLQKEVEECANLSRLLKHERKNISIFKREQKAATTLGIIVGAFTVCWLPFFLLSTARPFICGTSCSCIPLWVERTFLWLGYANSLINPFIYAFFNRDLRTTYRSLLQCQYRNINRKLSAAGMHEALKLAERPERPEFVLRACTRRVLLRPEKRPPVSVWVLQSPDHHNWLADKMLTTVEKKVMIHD

Structure (SMILES)	memory disorders caused by Scopolamine in Morris water maze [1]	inhibition at 1 µM [2] [%]	IC50 [3] [nM]	Ki [3] [nM]	nH 5-HT6 [3]	imidazoline I2 receptor % inhibition [4] [%]	Histamine receptor H2, % inhibition [5] [%]	α-Adrenoceptor α1D, % inhibition [6] [%]	nH 5-HT2B [7]	IC50 ([7]; read-out: IC50 5-HT2B) [nM]	Ki ([7]; read-out: Ki 5-HT2B) [nM]	IC50 [8] [nM]	Ki [8] [nM]	nH 5-HT2A [8]	Histamine receptor H1, % inhibition [9] [%]
Cc1ccc2c(c1)c1c(n2CCc2ccncc2)CCCN(C)C1.Cl.Cl [1.2.2(5-3)•2HCl]	decreasing memory disorders coused by Scopalomine														
Cc1ccc(S(=O)(=O)n2c3c(c4cc(C)ccc42)CN(C)CCC3)cc1.Cl [1.8.1(3)•HCl]		99	34.8	15.9	1.07	17	82	55	0.784	319	203	22.5	6.43	1.01	95
